Source: US20230085307A1, “PYRIDAZINONE COMPOUND AND HERBICIDE” (NISSAN CHEMICAL CORPORATION, priority 2019, published 2023)

Legend:
barnyard grass [1] = assay: Test Example 3: herbicidal effect by foliage application, Wagner pot (Table 18, symbol H); type: in vivo, barnyard grass (Echinochloa crus-galli); conditions: amount of applied herbicide 320 g/ha
Method in brief: (§1)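 Plants were sown in alluvial soil held under 0.1–0.5 cm standing water and grown 14 days in a greenhouse at 25–30 °C. An emulsifiable formulation, water-diluted to the set dose, was then sprayed onto the foliage, and effects were scored three weeks later using previously defined criteria.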

Chinese sprangletop = assay: Test Example 3: herbicidal effect by foliage application, Wagner pot (Table 18, symbol D); type: in vivo, chinese sprangletop (Leptochloa chinensis); conditions: amount of applied herbicide 320 g/ha
Method in brief: as §1

rice flat sedge = assay: Test Example 3: herbicidal effect by foliage application, Wagner pot (Table 18, symbol E); type: in vivo, rice flat sedge (Cyperus iria); conditions: amount of applied herbicide 320 g/ha
Method in brief: as §1

southern crabgrass [2] = assay: Test Example 4: herbicidal effect by soil treatment (Table 19, symbol F); type: in vivo, southern crabgrass (Digitaria ciliaris); conditions: amount of applied herbicide 320 g/ha
Method in brief: (§2)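 Step 1: sow seeds in sterilized diluvial soil, cover ~1.5 cm. Step 2: spray diluted emulsion onto soil surface at predetermined rate. Step 3: greenhouse, 25–30° C, three weeks. Step 4: grade effect on each plant by earlier criteria.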

green foxtail [3] = assay: Test Example 4: herbicidal effect by soil treatment (Table 19, symbol G); type: in vivo, green foxtail (Setaria viridis); conditions: amount of applied herbicide 320 g/ha
Method in brief: as §2

barnyard grass [4] = assay: Test Example 4: herbicidal effect by soil treatment (Table 19, symbol H); type: in vivo, barnyard grass (Echinochloa crus-galli); conditions: amount of applied herbicide 320 g/ha
Method in brief: as §2

wild oat [5] = assay: Test Example 4: herbicidal effect by soil treatment (Table 19, symbol I); type: in vivo, wild oat (Avena fatua); conditions: amount of applied herbicide 320 g/ha
Method in brief: as §2

blackgrass [6] = assay: Test Example 4: herbicidal effect by soil treatment (Table 19, symbol J); type: in vivo, blackgrass (Alopecurus myosuroides); conditions: amount of applied herbicide 320 g/ha
Method in brief: as §2

Italian ryegrass [7] = assay: Test Example 4: herbicidal effect by soil treatment (Table 19, symbol K); type: in vivo, Italian ryegrass (Lolium multiflorum); conditions: amount of applied herbicide 320 g/ha
Method in brief: as §2

windgrass [8] = assay: Test Example 4: herbicidal effect by soil treatment (Table 19, symbol L); type: in vivo, windgrass (Apera spica-venti); conditions: amount of applied herbicide 320 g/ha
Method in brief: as §2

velvetleaf [9] = assay: Test Example 4: herbicidal effect by soil treatment (Table 19, symbol M); type: in vivo, velvetleaf (Abutilon theophrasti); conditions: amount of applied herbicide 320 g/ha
Method in brief: as §2

redroot pigweed [10] = assay: Test Example 4: herbicidal effect by soil treatment (Table 19, symbol N); type: in vivo, redroot pigweed (Amaranthus retroflexus); conditions: amount of applied herbicide 320 g/ha
Method in brief: as §2

lambsquarters [11] = assay: Test Example 4: herbicidal effect by soil treatment (Table 19, symbol O); type: in vivo, lambsquarters (Chenopodium album); conditions: amount of applied herbicide 320 g/ha
Method in brief: as §2

chickweed [12] = assay: Test Example 4: herbicidal effect by soil treatment (Table 19, symbol P); type: in vivo, common chickweed (Stellaria media); conditions: amount of applied herbicide 320 g/ha
Method in brief: as §2

persian speedwell [13] = assay: Test Example 4: herbicidal effect by soil treatment (Table 19, symbol R); type: in vivo, Persian speedwell (Veronica persica); conditions: amount of applied herbicide 320 g/ha
Method in brief: as §2

southern crabgrass [14] = assay: Test Example 5: herbicidal effect by foliage application, plastic box (Table 20, symbol F); type: in vivo, southern crabgrass (Digitaria ciliaris); conditions: foliage application, 320 g/ha, evaluated three weeks after application
Method in brief: (§3)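 Foliar spray test: emulsion formulation diluted in water to a set application rate, sprayed onto 14-day-old plants raised in diluvial soil at 25° C to 30° C under glass. Both herbicidal effect and crop effect rated visually three weeks later.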

green foxtail [15] = assay: Test Example 5: herbicidal effect by foliage application, plastic box (Table 20, symbol G); type: in vivo, green foxtail (Setaria viridis); conditions: foliage application, 320 g/ha, evaluated three weeks after application
Method in brief: as §3

barnyard grass [16] = assay: Test Example 5: herbicidal effect by foliage application, plastic box (Table 20, symbol H); type: in vivo, barnyard grass (Echinochloa crus-galli); conditions: foliage application, 320 g/ha, evaluated three weeks after application
Method in brief: as §3

wild oat [17] = assay: Test Example 5: herbicidal effect by foliage application, plastic box (Table 20, symbol I); type: in vivo, wild oat (Avena fatua); conditions: foliage application, 320 g/ha, evaluated three weeks after application
Method in brief: as §3

blackgrass [18] = assay: Test Example 5: herbicidal effect by foliage application, plastic box (Table 20, symbol J); type: in vivo, blackgrass (Alopecurus myosuroides); conditions: foliage application, 320 g/ha, evaluated three weeks after application
Method in brief: as §3

Italian ryegrass [19] = assay: Test Example 5: herbicidal effect by foliage application, plastic box (Table 20, symbol K); type: in vivo, Italian ryegrass (Lolium multiflorum); conditions: foliage application, 320 g/ha, evaluated three weeks after application
Method in brief: as §3

windgrass [20] = assay: Test Example 5: herbicidal effect by foliage application, plastic box (Table 20, symbol L); type: in vivo, windgrass (Apera spica-venti); conditions: foliage application, 320 g/ha, evaluated three weeks after application
Method in brief: as §3

velvetleaf [21] = assay: Test Example 5: herbicidal effect by foliage application, plastic box (Table 20, symbol M); type: in vivo, velvetleaf (Abutilon theophrasti); conditions: foliage application, 320 g/ha, evaluated three weeks after application
Method in brief: as §3

redroot pigweed [22] = assay: Test Example 5: herbicidal effect by foliage application, plastic box (Table 20, symbol N); type: in vivo, redroot pigweed (Amaranthus retroflexus); conditions: foliage application, 320 g/ha, evaluated three weeks after application
Method in brief: as §3

lambsquarters [23] = assay: Test Example 5: herbicidal effect by foliage application, plastic box (Table 20, symbol O); type: in vivo, lambsquarters (Chenopodium album); conditions: foliage application, 320 g/ha, evaluated three weeks after application
Method in brief: as §3

chickweed [24] = assay: Test Example 5: herbicidal effect by foliage application, plastic box (Table 20, symbol P); type: in vivo, common chickweed (Stellaria media); conditions: foliage application, 320 g/ha, evaluated three weeks after application
Method in brief: as §3

persian speedwell [25] = assay: Test Example 5: herbicidal effect by foliage application, plastic box (Table 20, symbol R); type: in vivo, Persian speedwell (Veronica persica); conditions: foliage application, 320 g/ha, evaluated three weeks after application
Method in brief: as §3

| SMILES | herbicidal effect on H: barnyard grass (barnyard grass [1]) | herbicidal effect on D: Chinese sprangletop (Chinese sprangletop) | herbicidal effect on E: rice flat sedge (rice flat sedge) | F: southern crabgrass, herbicidal effect rating (southern crabgrass [2]) | G: green foxtail, herbicidal effect rating (green foxtail [3]) | H: barnyard grass, herbicidal effect rating (barnyard grass [4]) | I: wild oat, herbicidal effect rating (wild oat [5]) | J: blackgrass, herbicidal effect rating (blackgrass [6]) | K: Italian ryegrass, herbicidal effect rating (Italian ryegrass [7]) | L: windgrass, herbicidal effect rating (windgrass [8]) | M: velvetleaf, herbicidal effect rating (velvetleaf [9]) | N: redroot pigweed, herbicidal effect rating (redroot pigweed [10]) | O: lambsquarters, herbicidal effect rating (lambsquarters [11]) | P: chickweed, herbicidal effect rating (chickweed [12]) | R: persian speedwell, herbicidal effect rating (persian speedwell [13]) | herbicidal effect on F: southern crabgrass (southern crabgrass [14]) | herbicidal effect on G: green foxtail (green foxtail [15]) | herbicidal effect on H: barnyard grass (barnyard grass [16]) | herbicidal effect on I: wild oat (wild oat [17]) | herbicidal effect on J: blackgrass (blackgrass [18]) | other results |
| --- | --- | --- | --- | --- | --- | --- | --- | --- | --- | --- | --- | --- | --- | --- | --- | --- | --- | --- | --- | --- | --- |
| Cc1ccc(-c2sc3ccc(C)cc3c2-c2c(O)c(C)nn(C)c2=O)cc1 [2-136] | 2 (Herbicidal rate of 20% or more and less than 40%) | 0 (Herbicidal rate of 5% or less (almost no effect)) | 5 (Herbicidal rate of 90% or more (almost completely withered)) | 3 (Herbicidal rate of 40% or more and less than 70%) | 0 (Herbicidal rate of 5% or less (almost no effect)) | 0 (Herbicidal rate of 5% or less (almost no effect)) | 0 (Herbicidal rate of 5% or less (almost no effect)) | 0 (Herbicidal rate of 5% or less (almost no effect)) | 3 (Herbicidal rate of 40% or more and less than 70%) | 0 (Herbicidal rate of 5% or less (almost no effect)) | 0 (Herbicidal rate of 5% or less (almost no effect)) | 5 (Herbicidal rate of 90% or more (almost completely withered)) | 5 (Herbicidal rate of 90% or more (almost completely withered)) | 4 (Herbicidal rate of 70% or more and less than 90%) | 5 (Herbicidal rate of 90% or more (almost completely withered)) | 0 (Herbicidal rate of 5% or less (almost no effect)) | 0 (Herbicidal rate of 5% or less (almost no effect)) | 0 (Herbicidal rate of 5% or less (almost no effect)) | 0 (Herbicidal rate of 5% or less (almost no effect)) | 0 (Herbicidal rate of 5% or less (almost no effect)) | herbicidal effect on K: Italian ryegrass (Italian ryegrass [19]): 5 (Herbicidal rate of 90% or more (almost completely withered)); herbicidal effect on L: windgrass (windgrass [20]): 0 (Herbicidal rate of 5% or less (almost no effect)); herbicidal effect on M: velvetleaf (velvetleaf [21]): 5 (Herbicidal rate of 90% or more (almost completely withered)); herbicidal effect on N: redroot pigweed (redroot pigweed [22]): 5 (Herbicidal rate of 90% or more (almost completely withered)); herbicidal effect on O: lambsquarters (lambsquarters [23]): 4 (Herbicidal rate of 70% or more and less than 90%); herbicidal effect on P: chickweed (chickweed [24]): 5 (Herbicidal rate of 90% or more (almost completely withered)); herbicidal effect on R: persian speedwell (persian speedwell [25]): 5 (Herbicidal rate of 90% or more (almost completely withered)) |
| CCCC(=O)Oc1c(C)nn(C)c(=O)c1-c1c(-c2ccc(C)cc2)sc2ccc(C)cc12 [2-137] | 1 (Herbicidal rate of 5% or more and less than 20%) | 1 (Herbicidal rate of 5% or more and less than 20%) | 5 (Herbicidal rate of 90% or more (almost completely withered)) | 0 (Herbicidal rate of 5% or less (almost no effect)) | 0 (Herbicidal rate of 5% or less (almost no effect)) | 0 (Herbicidal rate of 5% or less (almost no effect)) | 0 (Herbicidal rate of 5% or less (almost no effect)) | 0 (Herbicidal rate of 5% or less (almost no effect)) | 2 (Herbicidal rate of 20% or more and less than 40%) | 0 (Herbicidal rate of 5% or less (almost no effect)) | 0 (Herbicidal rate of 5% or less (almost no effect)) | 0 (Herbicidal rate of 5% or less (almost no effect)) | 0 (Herbicidal rate of 5% or less (almost no effect)) | 4 (Herbicidal rate of 70% or more and less than 90%) | 1 (Herbicidal rate of 5% or more and less than 20%) | 0 (Herbicidal rate of 5% or less (almost no effect)) | 3 (Herbicidal rate of 40% or more and less than 70%) | 0 (Herbicidal rate of 5% or less (almost no effect)) | 0 (Herbicidal rate of 5% or less (almost no effect)) | 0 (Herbicidal rate of 5% or less (almost no effect)) | herbicidal effect on K: Italian ryegrass (Italian ryegrass [19]): 4 (Herbicidal rate of 70% or more and less than 90%); herbicidal effect on L: windgrass (windgrass [20]): 0 (Herbicidal rate of 5% or less (almost no effect)); herbicidal effect on M: velvetleaf (velvetleaf [21]): 4 (Herbicidal rate of 70% or more and less than 90%); herbicidal effect on N: redroot pigweed (redroot pigweed [22]): 4 (Herbicidal rate of 70% or more and less than 90%); herbicidal effect on O: lambsquarters (lambsquarters [23]): 2 (Herbicidal rate of 20% or more and less than 40%); herbicidal effect on P: chickweed (chickweed [24]): 5 (Herbicidal rate of 90% or more (almost completely withered)); herbicidal effect on R: persian speedwell (persian speedwell [25]): 5 (Herbicidal rate of 90% or more (almost completely withered)) |
